Assay results taken from US20220213092A1, “BICYCLIC PYRAZOLE BRUTON'S TYROSINE KINASE INHIBITORS” (AbbVie Inc., priority 2020, published 2022).

These compounds were tested against T1, BTK (Homo sapiens, UniProt Q06187) (assay: BTK kinase electrophoretic mobility shift assay (MSA)). Conditions: not given.
T1 construct: purchased Nanosyn, Santa Clara, Calif; host or cells: 293HEK
Format: biochemical
Protocol: Kinase activity, unless otherwise indicated, was measured in vitro using an electrophoretic mobility shift assay (MSA). The phosphorylation of a peptide substrate by BTK and other kinases was measured. The kinase reactions were assembled in a total volume of 25 μL per well in 384 well plates. The following was added to each well: compound buffer (or control); enzyme buffer; and substrate buffer, as further described below.
The terminated reactions were analyzed using a 12 channel LABCHIP® 3000 microfluidic detection instrument (available from Caliper Life Sciences, Waltham, Mass.). […] Change in the relative fluorescence intensity of the substrate and product peaks was the parameter measured, reflecting enzyme activity. In the presence of an inhibitor, the ratio between product and substrate was altered. The signal of the product decreased, while the signal of the substrate increased. Capillary electrophoregrams (RDA acquisition files) were analyzed using HTS Well Analyzer software (available from Caliper Life Sciences, Waltham, Mass.).
Activity in each sample was determined as the product to sum ratio (PSR): P/(S+P), where P was the peak height of the product peptide and S was the peak height of the substrate peptide. For each compound, enzyme activity was measured at various concentrations (12 concentrations of compound spaced by 3× dilution intervals). Negative control samples (00 inhibition in the absence of inhibitor) and positive control samples (10000 inhibition, in the presence of 20 mM EDTA) were assembled in replicates of four and were used to calculate 00 inhibition values for each inhibitor at each concentration. Percent inhibition (Pinh) was determined using following equation: Pinh=(PSR0%−PSRinh)/(PSR0%−PSR100%)*100, where PSRinh was the product sum ratio in the presence of inhibitor, PSR0% was the average product sum ratio in the absence of inhibitor and PSR100% was the average product sum ratio in 100%−inhibition control samples.
The IC50 values of inhibitors were determined by 4 parameter sigmoidal dose response model fitting of the inhibition curves (Pinh versus inhibitor concentration) using XLfit® 4 software (available from IDBS, Boston, Mass.).

T1 sequence (Q06187 whole entry): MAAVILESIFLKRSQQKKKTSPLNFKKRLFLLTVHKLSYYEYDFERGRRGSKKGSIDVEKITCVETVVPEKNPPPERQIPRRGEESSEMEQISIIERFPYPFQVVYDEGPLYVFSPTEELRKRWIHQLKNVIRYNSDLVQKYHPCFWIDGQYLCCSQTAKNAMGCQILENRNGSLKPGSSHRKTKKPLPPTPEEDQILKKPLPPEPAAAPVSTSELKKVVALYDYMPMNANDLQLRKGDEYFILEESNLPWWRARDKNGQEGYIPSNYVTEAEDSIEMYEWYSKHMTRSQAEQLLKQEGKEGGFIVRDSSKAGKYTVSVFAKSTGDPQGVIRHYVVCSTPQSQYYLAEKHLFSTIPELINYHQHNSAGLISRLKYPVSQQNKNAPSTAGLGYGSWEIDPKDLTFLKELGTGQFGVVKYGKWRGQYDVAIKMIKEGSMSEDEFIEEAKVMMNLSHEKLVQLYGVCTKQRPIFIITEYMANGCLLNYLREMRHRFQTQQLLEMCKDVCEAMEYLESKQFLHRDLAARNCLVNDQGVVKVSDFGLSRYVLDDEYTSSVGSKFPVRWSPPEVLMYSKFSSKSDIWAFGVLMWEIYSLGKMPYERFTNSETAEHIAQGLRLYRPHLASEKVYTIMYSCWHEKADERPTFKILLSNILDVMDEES

Compound | IC50
NC(=O)c1c2c(nn1-c1ccc(Oc3ccccc3)cc1)C(N1CCN(C(=O)CF)CC1)CCN2 (stereo not drawn) [Example 49, 7-[4-(fluoroacetyl)piperazin-1-yl]-2-(4-phenoxyphenyl)-4,5,6,7-tetrahydro-2H-pyrazolo[4,3-b]pyridine-3-carboxamide] | 398 nM

Same assay, conditions: 50 μM ATP, 0.5 nM BTK enzyme (Nanosyn-293HEK, WT), 3 hours at 25° C.; all examples except 50, 51, 62 and 63; read-out: BTK IC50

Compound | IC50
C=CC(=O)N1CCN([C@H]2CCNc3c2nn(-c2ccc(Oc4ccccc4C)cc2)c3C(N)=O)CC1 [Example 94, (7S)-2-[4-(2-methylphenoxy)phenyl]-7-[4-(prop-2-enoyl)piperazin-1-yl]-4,5,6,7-tetrahydro-2H-pyrazolo[4,3-b]pyridine-3-carboxamide] | 23.5 nM
C=CC(=O)N1CCN([C@H]2CCNc3c2nn(-c2ccc(Oc4cccc(OC)c4)cc2)c3C(N)=O)CC1 [Example 98, (7S)-2-[4-(3-methoxyphenoxy)phenyl]-7-[4-(prop-2-enoyl)piperazin-1-yl]-4,5,6,7-tetrahydro-2H-pyrazolo[4,3-b]pyridine-3-carboxamide] | 14.4 nM
CC#CC(=O)N1CCN(C2CCNc3c2nn(-c2ccc(Oc4ccccc4)cc2)c3C(N)=O)CC1 (stereo not drawn) [Example 27, 7-[4-(but-2-ynoyl)piperazin-1-yl]-2-(4-phenoxyphenyl)-4,5,6,7-tetrahydro-2H-pyrazolo[4,3-b]pyridine-3-carboxamide] | 126 nM
C=CC(=O)N1CCN([C@H]2CCNc3c2nn(-c2ccc(Oc4ccccc4OC(F)(F)F)cc2)c3C(N)=O)CC1 [Example 100, (7S)-7-[4-(prop-2-enoyl)piperazin-1-yl]-2-{4-[2-(trifluoromethoxy)phenoxy]phenyl}-4,5,6,7-tetrahydro-2H-pyrazolo[4,3-b]pyridine-3-carboxamide] | 46.3 nM
C=CC(=O)N1CCN([C@H]2CCNc3c2nn(-c2ccc(Oc4cccc(OC(F)(F)F)c4)cc2)c3C(N)=O)CC1 [Example 101, (7S)-7-[4-(prop-2-enoyl)piperazin-1-yl]-2-{4-[3-(trifluoromethoxy)phenoxy]phenyl}-4,5,6,7-tetrahydro-2H-pyrazolo[4,3-b]pyridine-3-carboxamide] | 64.1 nM
CC#CC(=O)N1CCN([C@@H]2CCNc3c2nn(-c2ccc(Oc4ccccc4)cc2)c3C(N)=O)CC1 (single isomer, unassigned) [Example 40] | 48.6 nM
C=CC(=O)N1CC2CC(C1)N2C1CCNc2c1nn(-c1ccc(Oc3ccccc3)cc1)c2C(N)=O (stereo not drawn) [Example 41, 2-(4-phenoxyphenyl)-7-[3-(prop-2-enoyl)-3,6-diazabicyclo[3.1.1]heptan-6-yl]-4,5,6,7-tetrahydro-2H-pyrazolo[4,3-b]pyridine-3-carboxamide] | 15.8 nM
C=CC(=O)N1C[C@H]2C[C@@H]1CN2C1CCNc2c1nn(-c1ccc(Oc3ccccc3)cc1)c2C(N)=O (stereo partly drawn) [Example 33, 2-(4-phenoxyphenyl)-7-[(1R,4R)-5-(prop-2-enoyl)-2,5-diazabicyclo[2.2.1]heptan-2-yl]-4,5,6,7-tetrahydro-2H-pyrazolo[4,3-b]pyridine-3-carboxamide] | 24.8 nM
C=CC(=O)N1C[C@@H](C)N(C2CCNc3c2nn(-c2ccc(Oc4ccccc4)cc2)c3C(N)=O)C[C@@H]1C (stereo partly drawn) [Example 21, 7-[(2R,5S)-2,5-dimethyl-4-(prop-2-enoyl)piperazin-1-yl]-2-(4-phenoxyphenyl)-4,5,6,7-tetrahydro-2H-pyrazolo[4,3-b]pyridine-3-carboxamide] | 919 nM
C=CC(=O)N1CCN(C2CCNc3c2nn(-c2ccc(Oc4ccc(F)cc4)cc2)c3C(N)=O)CC1 (stereo not drawn) [Example 56, 2-[4-(4-fluorophenoxy)phenyl]-7-[4-(prop-2-enoyl)piperazin-1-yl]-4,5,6,7-tetrahydro-2H-pyrazolo[4,3-b]pyridine-3-carboxamide] | 14.8 nM
C=CC(=O)N1CCN([C@H]2CCNc3c2nn(-c2ccc(Oc4ccccc4)cc2)c3C(N)=O)[C@@H](C)C1 (single isomer, unassigned) [Example 31] | 88.3 nM
C=CC(=O)N1CCN([C@H]2CCNc3c2nn(-c2ccc(Oc4ccc(OC(F)(F)F)cc4)cc2)c3C(N)=O)CC1 [Example 102, (7S)-7-[4-(prop-2-enoyl)piperazin-1-yl]-2-{4-[4-(trifluoromethoxy)phenoxy]phenyl}-4,5,6,7-tetrahydro-2H-pyrazolo[4,3-b]pyridine-3-carboxamide] | > 1000 nM

More lines, now with the values ahead:

IC50 | Compound
3.17 nM | C=CC(=O)N1CCN(C2CCNc3c2nn(-c2ccc(Oc4ccccc4)cc2)c3C(N)=O)C[C@H]1C(C)C (stereo partly drawn) [Example 20, 2-(4-phenoxyphenyl)-7-[(3R)-3-(propan-2-yl)-4-(prop-2-enoyl)piperazin-1-yl]-4,5,6,7-tetrahydro-2H-pyrazolo[4,3-b]pyridine-3-carboxamide]
2.25 nM | C=CC(=O)N1CCC(C2CCNc3c2nn(-c2ccc(Oc4ccc(F)cc4)cc2)c3C(N)=O)CC1 (stereo not drawn) [Example 11, 2-[4-(4-fluorophenoxy)phenyl]-7-[1-(prop-2-enoyl)piperidin-4-yl]-4,5,6,7-tetrahydro-2H-pyrazolo[4,3-b]pyridine-3-carboxamide]
3.78 nM | C=CC(=O)N1CCC(C2CCNc3c2nn(-c2ccc(Oc4ccccc4)cc2)c3C(N)=O)C1 (mixture of isomers) [Example 10, 2-(4-phenoxyphenyl)-7-[1-(prop-2-enoyl)pyrrolidin-3-yl]-4,5,6,7-tetrahydro-2H-pyrazolo[4,3-b]pyridine-3-carboxamide]
2.72 nM | C=CC(=O)N1CCC(C2CCNc3c2nn(-c2ccc(Oc4ccc(OC)cc4)cc2)c3C(N)=O)CC1 (stereo not drawn) [Example 17, 2-[4-(4-methoxyphenoxy)phenyl]-7-[1-(prop-2-enoyl)piperidin-4-yl]-4,5,6,7-tetrahydro-2H-pyrazolo[4,3-b]pyridine-3-carboxamide]
3.58 nM | C=CC(=O)N1CCN(C2CCNc3c2nn(-c2ccc(Oc4ccccc4F)cc2)c3C(N)=O)CC1 (stereo not drawn) [Example 38, 2-[4-(2-fluorophenoxy)phenyl]-7-[4-(prop-2-enoyl)piperazin-1-yl]-4,5,6,7-tetrahydro-2H-pyrazolo[4,3-b]pyridine-3-carboxamide]
4.07 nM | CC#CC(=O)N1CCC(C2CCNc3c2nn(-c2ccc(Oc4ccccc4)cc2)c3C(N)=O)CC1 (stereo not drawn) [Example 2, 7-[1-(but-2-ynoyl)piperidin-4-yl]-2-(4-phenoxyphenyl)-4,5,6,7-tetrahydro-2H-pyrazolo[4,3-b]pyridine-3-carboxamide]
14.1 nM | C=CC(=O)N1CCN([C@H]2CCNc3c2nn(-c2ccc(Oc4cccc(C)c4)cc2)c3C(N)=O)CC1 [Example 95, (7S)-2-[4-(3-methylphenoxy)phenyl]-7-[4-(prop-2-enoyl)piperazin-1-yl]-4,5,6,7-tetrahydro-2H-pyrazolo[4,3-b]pyridine-3-carboxamide]
1.84 nM | C=CC(=O)N1CCC(C2CCNc3c2nn(-c2ccc(Oc4ccc(F)cc4F)cc2)c3C(N)=O)CC1 (stereo not drawn) [Example 13, 2-[4-(2,4-difluorophenoxy)phenyl]-7-[1-(prop-2-enoyl)piperidin-4-yl]-4,5,6,7-tetrahydro-2H-pyrazolo[4,3-b]pyridine-3-carboxamide]
2.03 nM | C=CC(=O)N1CCC(C2CCNc3c2nn(-c2ccc(Oc4cccc(C(F)(F)F)c4)cc2)c3C(N)=O)CC1 (stereo not drawn) [Example 23, 7-[1-(prop-2-enoyl)piperidin-4-yl]-2-{4-[3-(trifluoromethyl)phenoxy]phenyl}-4,5,6,7-tetrahydro-2H-pyrazolo[4,3-b]pyridine-3-carboxamide]
5.8 nM | CC#CC(=O)N1CCN([C@H]2CCNc3c2nn(-c2ccc(Oc4ccccc4)cc2)c3C(N)=O)CC1 (single isomer, unassigned) [Example 39]
14.2 nM | C=CC(=O)N1CCN(C2CCNc3c2nn(-c2ccc(Oc4ccc(F)cc4F)cc2)c3C(N)=O)CC1 (stereo not drawn) [Example 36, 2-[4-(2,4-difluorophenoxy)phenyl]-7-[4-(prop-2-enoyl)piperazin-1-yl]-4,5,6,7-tetrahydro-2H-pyrazolo[4,3-b]pyridine-3-carboxamide]
7.63 nM | C=CC(=O)N1CCN(C2CCNc3c2nn(-c2ccc(Oc4cc(F)cc(F)c4)cc2)c3C(N)=O)CC1 (stereo not drawn) [Example 55, 2-[4-(3,5-difluorophenoxy)phenyl]-7-[4-(prop-2-enoyl)piperazin-1-yl]-4,5,6,7-tetrahydro-2H-pyrazolo[4,3-b]pyridine-3-carboxamide]
10.5 nM | C=CC(=O)N1CCC([C@@H]2CCNc3c2nn(-c2ccc(Oc4ccccc4)cc2)c3C(N)=O)CC1 [Example 5, (7S)-2-(4-phenoxyphenyl)-7-[1-(prop-2-enoyl)piperidin-4-yl]-4,5,6,7-tetrahydro-2H-pyrazolo[4,3-b]pyridine-3-carboxamide]
11.8 nM | C=CC(=O)N1CCN(C2CCNc3c2nn(-c2ccc(Oc4ccccc4)cc2)c3C(N)=O)C[C@H]1C (stereo partly drawn) [Example 42, 7-[(3R)-3-methyl-4-(prop-2-enoyl)piperazin-1-yl]-2-(4-phenoxyphenyl)-4,5,6,7-tetrahydro-2H-pyrazolo[4,3-b]pyridine-3-carboxamide]
